# Test: Peroxide retention after desiccation and rehydration (peroxide check strips)
# Type: physicochemical
# Conditions: 1 g-10 g extract in 20 ml 35% hydrogen peroxide, heated at 80° C., desiccated to 5 ml, rehydrated; colorimetric strips
smiles,measurement,value
"Oc1ccc(C=Cc2cc(O)cc(O)c2)cc1 [resveratrol, Resveratrol]",peroxide retention capability,relatively less ability to form stable perhydrates

# — patent publication US20120328711A1, “Antimicrobial system for selective, site-activated binding at target sites” (priority 2011, published 2012)
